Assay results taken from paper PMC9518244, “TiO2 nanotube immobilised 5-lipoxygenase-mediated screening and isolation of anti-inflammatory active compounds from the leaves of lonicera japonica thunb” (Journal of Enzyme Inhibition and Medicinal Chemistry, 2022).
Like-named read-outs stand apart in the source and are kept apart here.

Columns and labels:
5-LOX [1] = molecular target: T1, 5-LOX (Glycine max, UniProt P08170); assay: 5-LOX immobilised on TiO2 nanotubes microreactor screening (HPLC peak area ratio); type: binding; conditions: analytes of LLJT extract eluted from immobilised 5-LOX, HPLC-MS
T1 sequence (P08170 whole entry): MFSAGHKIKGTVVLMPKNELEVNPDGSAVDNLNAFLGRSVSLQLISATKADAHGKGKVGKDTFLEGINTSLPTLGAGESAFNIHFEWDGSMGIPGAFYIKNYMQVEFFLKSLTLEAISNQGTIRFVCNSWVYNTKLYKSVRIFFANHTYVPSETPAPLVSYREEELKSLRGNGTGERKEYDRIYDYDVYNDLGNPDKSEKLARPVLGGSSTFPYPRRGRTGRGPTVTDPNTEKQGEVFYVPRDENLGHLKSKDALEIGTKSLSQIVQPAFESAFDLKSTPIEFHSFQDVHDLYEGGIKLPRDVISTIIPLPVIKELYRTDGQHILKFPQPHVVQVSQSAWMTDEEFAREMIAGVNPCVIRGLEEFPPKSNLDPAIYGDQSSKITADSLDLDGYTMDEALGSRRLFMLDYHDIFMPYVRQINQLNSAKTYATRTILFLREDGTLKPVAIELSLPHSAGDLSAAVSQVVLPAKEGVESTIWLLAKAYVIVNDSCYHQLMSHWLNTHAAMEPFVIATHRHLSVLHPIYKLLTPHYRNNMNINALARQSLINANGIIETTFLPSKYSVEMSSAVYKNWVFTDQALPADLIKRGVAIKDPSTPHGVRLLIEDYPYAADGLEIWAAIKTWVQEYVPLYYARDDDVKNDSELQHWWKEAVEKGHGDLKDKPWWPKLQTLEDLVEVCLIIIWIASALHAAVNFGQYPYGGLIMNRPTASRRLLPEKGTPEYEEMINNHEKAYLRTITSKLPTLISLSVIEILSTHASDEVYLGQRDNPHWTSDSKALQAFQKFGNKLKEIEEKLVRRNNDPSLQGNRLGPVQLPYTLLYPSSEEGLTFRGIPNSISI
Experimental: Glutaraldehyde (GA) was used as crosslinking agent to covalently immobilise 5-LOX on the amino terminated TNTs. The NH2-TNTs was added to GA solution and shaken in a incubator at room temperature (25 °C) for 8 h. The resulting product was labelled GA-TNTs. Then GA-TNTs was merged with Tris-HCl solution (0.1 M, pH 7.0) containing a certain amount of 5-LOX, and the immobilisation was performed in a shaker at 4 °C for a certain time. After that, the immobilised 5-LOX was acquired by centrifuge to remove supernatant and comprehensively rinsed with Tris-HCl buffer solution several times to remove the unimmobilised enzyme. The 5-LOX-TNTs composites were suspended in Tris-HCl solution and stored at 4 °C before use.
The crude extract of leaves of Lonicera japonica Thunb. was added to 5% (v/v) methanol-Tris buffer solution, and dissolved by ultrasonic to prepare an incubation solution with a concentration of about 5.66 mg/mL. Then 25 mg of material immobilised with 5-LOX was combined with 1 mL of incubation solution and incubated at 25 °C for 90 min on a shaker. After incubation, the material was washed with 1 mL of buffer solution for six times. Then 1 mL of 90% (v/v) acetonitrile aqueous solution was used for ultrasonic elution for 10 min. After centrifugation, the supernatant was filtered and analysed by HPLC-MS.
The screening processes were the same as above.

5-LOX [2] = molecular target: T1, 5-LOX; assay: Offline enzyme model: 5-LOX inhibition, linoleic acid / FOX reagent, A590; type: biochemical; conditions: concentration 1.0 mmol/L
Source text: Specific steps were as follows:
Information Classification: General
(1 picture or pasted object on this page, not shown here)

RAW264.7 cells [3] = assay: Cell morphology observation of RAW264.7 cells; type: cell-based, mouse; conditions: 60 μM, with and without LPS 100 ng/mL, microscope 200x
Experimental: The RAW264.7 mouse macrophage cell line (RAW264.7) was cultured in DMEM (Dulbecco's modified eagle medium) supplemented with 10% (v/v) Fetal bovine serum (FBS), 1×105 U·L-1 penicillin and 100 mg·L-1 streptomycin under an atmosphere of humidified 5% CO2 at 37 °C to the logarithmic phase. The samples were dissolved in DMSO and diluted with medium to the desired concentration. The content of DMSO should not exceed 1‰.
There are blank group (no test sample, no LPS), model group (100 ng/mL LPS), experimental group (60 μM test sample + LPS) and negative control group (60 μM test sample) were tested.
For cell morphology observation , the cells were seeded into 6 -well plates at an inoculation amount of 6 ×10^5/well, cultured at 37 °C and 5% CO2 for 24 h, and then the medium was changed. After 2 h incubation with different groups, LPS stimulation with a final concentration of 100 ng/mL were added into the model group and experimental group .
normal group and the negative control group were added with the same volume of PBS, and then photographed under a microscope (200x) after 22 h.

RAW264.7 cells [4] = assay: Cytotoxicity assay (CCK-8) in RAW264.7 cells; type: cell-based, mouse; conditions: for Toxicity on RAW264.7 cells (in words): 20-60 μM, luteolin 1-5 μM
Experimental: (§1) For cytotoxicity assay, RAW264.7 cells were seeded in 96-well plates at an inoculation amount of 3 × 10^4/well, and the medium was changed after culturing for 24 h at 37 °C and 5% […]
(§2) concentration (20 μM, 40 μM and 60 μM) of sample solution prepared with fresh medium was added dropwise to 96-well plate. After incubation for 2 h, LPS with a final concentration of 100 ng/mL was added to each well of the experimental group and the model group , the same volume of PBS was added to the normal group and the negative control group. After stimulation for another 22 h, the medium was removed and replaced with fresh medium. 10 μL of CCK-8 reagent was added at room temperature in the dark, and the absorbance was measured at a wavelength of 450 nm after 1 h. […]

RAW264.7 cells [5] = assay: NO production in LPS-stimulated RAW264.7 cells (NO kit); type: cell-based, mouse; conditions: for LPS-induced NO release in RAW264.7 cells (in words): compared with the model group
Experimental: For the effects of the test samples on NO production research, RAW264.7 cells were seeded in 96-well plates at 3×10^4 cells/well, cultured at 37°C, 5% CO 2, and the medium was changed after 24 h. There were the blank group, model group, experimental group (20 μM, 40 μM, 60 μM test sample+LPS) and negative control group (60 μM test sample). After dosing, the cells were incubated at 37 °C with 5% CO 2 for 2 h, then LPS was added to the model group and the experimental group to make the final concentration reach 100 ng/mL, the normal group and the negative control group were added with the same volume of PBS, Then 50 μL of supernatant was taken after culturing for 20 h to record the absorbance value at 540 nm using Information Classification: General

[6] = Cytotoxicity assay (CCK-8) in RAW264.7 cells; type: cell-based, mouse; conditions: mouse, RAW264.7 cells, read-out: Cell viability (%)
Experimental: as §1, §2

5-LOX [7] = tested on: 5-LOX; design: method as in earlier work; conditions: RBL-1 cells; cited from earlier work
[8] = Cytotoxicity assay (CCK-8) in RAW264.7 cells; type: cell-based; conditions: mouse, no LPS, read-out: Cell viability (%)
rat foot swelling = assay: Rat foot swelling model (egg white); type: in vivo; conditions: 5.0 mg/kg intraperitoneal, 10-60 min after egg white
Experimental: the NO kit, and the amount of NO produced in each well was calculated. Each group of experiment was performed in parallel three times.
All the animals were acclimated under standard laboratory conditions and had free access to standard water and food. All procedures were conducted in accordance with the “Guiding Principles in the Care and Use of Animals” (China) and were approved by the Ethics Committee of Biomedical Scientific Research of Henan University.
Thirty two male and female rats were divided into four groups with eight rats in each group.
They were normal saline negative control group, dexamethasone positive control group, n-butanol phase of Lonicera japonica Thunb. leaves (RDY nB) administration group and the […]
The intraperitoneal injection method was used
One hour after injection the corresponding drugs in each group, 0.1 mL of fresh egg white was injected into the right postal paw of each rat. Before and after the injection of egg white at 10, 20, 30, 40, 50, and 60 min, the volume of the right postal paw of rat was measured by a toe volume meter, and the swelling rate was calculated. […]
Statistical analysis was analyzed by one-way ANOVA through SPSS 17.0 software, and all data expressed as mean ± SD. Meanwhile, the significant difference between groups was evaluated by Tukey post-hoc test, P<0.05 and P<0.01 were considered statistically Information Classification: General […]

[9] = 40 μmol/L, LPS 100 ng/mL, vs model group
[10] = 60 μmol/L, LPS 100 ng/mL, vs model group

Row | Structure (SMILES) | Bonding rate (%) (5-LOX [1]) | Inhibitory rate (%) (5-LOX [2]) | Effect on morphology of RAW264.7 cells (RAW264.7 cells [3]) | Cell viability (%) (RAW264.7 cells [4]; 20 μmol/L, LPS 100 ng/mL) | Cell viability (%) (RAW264.7 cells [4]; 20 μmol/L, no LPS) | Cell viability (%) (RAW264.7 cells [4]; 40 μmol/L, LPS 100 ng/mL) | Cell viability (%) (RAW264.7 cells [4]; 40 μmol/L, no LPS) | Cell viability (%) (RAW264.7 cells [4]; 60 μmol/L, LPS 100 ng/mL) | Cell viability (%) (RAW264.7 cells [4]; 60 μmol/L, no LPS) | Toxicity on RAW264.7 cells (in words) (RAW264.7 cells [4]) | NO content (RAW264.7 cells [5]; 20 μmol/L, LPS 100 ng/mL) | NO content (RAW264.7 cells [5]; 20 μmol/L, no LPS) | NO content (RAW264.7 cells [5]; 40 μmol/L, LPS 100 ng/mL) | Inhibition rate (%) of NO production (RAW264.7 cells [5]; [9]) | NO content (RAW264.7 cells [5]; 60 μmol/L, LPS 100 ng/mL) | Inhibition rate (%) of NO production (RAW264.7 cells [5]; [10]) | LPS-induced NO release in RAW264.7 cells (in words) (RAW264.7 cells [5]; LPS 100 ng/mL) | viability at 24 h, 20 μmol/L ([6]; LPS 100 ng/mL) | viability at 24 h, 20 μmol/L ([6]; no LPS) | viability at 24 h, 40 μmol/L ([6]; LPS 100 ng/mL) | other results
1 | O=C(/C=C/c1ccc(O)c(O)c1)O[C@H]1[C@H](O)C[C@](O)(C(=O)O)C[C@H]1OC(=O)/C=C/c1ccc(O)c(O)c1 [Isochlorogenic acid C, isochlorogenic acid C] | 6.34% | 40.24% | improve the deformation of the inflammatory cells | 206.6±7.8% | 140.0±7.6% | 188.8±1.4% | 190.4±0.2% | 201.4±3.8% | 186.6±4.1% | low toxicity on RAW264.7 cells | 6.6 ± 0.3 µmol/L | 5.9 ± 0.4 µmol/L | 6.7 ± 0.6 µmol/L | 25.6% | 7.2 ± 0.6 µmol/L | 19.9% | can inhibit LPS-induced NO release in RAW264.7 cells | – | – | – | –
2 | O=c1cc(-c2ccc(O)c(O)c2)oc2cc(O[C@@H]3O[C@H](CO)[C@@H](O)[C@H](O)[C@H]3O)cc(O)c12 [Luteoloside, luteoloside] | 8.87% | 27.26% | no significant effect on cells | 102.6±0.4% | 100.2±2.1% | 104.2±3.4% | 102.1±1.7% | 103.2±4.8% | 56.8±8.8% | – | 11.5 ± 0.1 µmol/L | 15.8 ± 1.5 µmol/L | 11.9 ± 0.5 µmol/L | -24.9% | 13.6 ± 1.3 µmol/L | -43.0% | failed to inhibit | – | – | – | Inhibition rate (%) of NO production (RAW264.7 cells [5]; 20 μmol/L, LPS 100 ng/mL, vs model group): -20.2%
3 | O=c1cc(-c2ccc(O)c(O)c2)oc2cc(O)cc(O)c12 [Luteolin, luteolin] | 34.85% | – | cause a large number of cell death | – | – | – | – | – | – | – | – | – | – | – | – | – | failed to inhibit | 52.6 ± 3.1% | 49.5 ± 3.9% | 33.4 ± 12.9% | viability at 24 h, 1 μmol/L ([6]; LPS 100 ng/mL): 195 ± 2.6%; viability at 24 h, 1 μmol/L ([6]; no LPS): 120 ± 7.2%; viability at 24 h, 2 μmol/L ([6]; 2 μmol/L, LPS 100 ng/mL): 199 ± 8.6%; viability at 24 h, 5 μmol/L ([6]; 5 μmol/L, LPS 100 ng/mL): 170 ± 3.5%; viability at 24 h, 40 μmol/L ([6]; no LPS): 22 ± 2.4%; viability at 24 h, 60 μmol/L ([6]; LPS 100 ng/mL): 1.4 ± 0.6%; viability at 24 h, 60 μmol/L ([6]; no LPS): 1.5 ± 0.4%; NO content (RAW264.7 cells [5]; 1 μmol/L, LPS 100 ng/mL): 14.4 ± 0.4 µmol/L; NO content (RAW264.7 cells [5]; 1 μmol/L, no LPS): 11.6 ± 0.6 µmol/L; NO content (RAW264.7 cells [5]; 2 μmol/L, LPS 100 ng/mL): 12.1 ± 0.1 µmol/L; NO content (RAW264.7 cells [5]; 5 μmol/L, LPS 100 ng/mL): 9.4 ± 0.5 µmol/L; inhibition at 1 µM (RAW264.7 cells [5]; Mus musculus, RAW264.7, 1 μmol/L, LPS 100 ng/mL, vs model group, read-out: Inhibition rate (%) of NO production): -51.1%; inhibition at 2 µM (RAW264.7 cells [5]; Mus musculus, RAW264.7, 2 μmol/L, LPS 100 ng/mL, vs model group, read-out: Inhibition rate (%) of NO production): -26.4%; inhibition at 5 µM (RAW264.7 cells [5]; Mus musculus, RAW264.7, 5 μmol/L, LPS 100 ng/mL, vs model group, read-out: Inhibition rate (%) of NO production): 1.8%; IC50 (5-LOX [7]): 810 nM; viability at 24 h, 2 μmol/L [8]: 104 ± 8.5%
4 | C[C@@H]1C[C@H]2[C@@H]3CCC4=CC(=O)C=C[C@]4(C)[C@@]3(F)[C@@H](O)C[C@]2(C)[C@@]1(O)C(=O)CO [Dexamethasone] | – | – | – | – | – | – | – | – | – | – | – | – | – | – | – | – | – | – | – | – | Anti-inflammatory effect, foot swelling rate (rat foot swelling): showed a good anti-inflammatory effect
5 | C[C@@H]1O[C@@H](O[C@H]2[C@H](Oc3cc(O)c4c(=O)cc(-c5ccc(O)c(O)c5)oc4c3)O[C@H](CO)[C@@H](O)[C@@H]2O)[C@H](O)[C@H](O)[C@H]1O [Lonicerin, lonicerin] | 23.42% | – | improve the deformation of the inflammatory cells | – | – | – | – | – | – | low toxicity on RAW264.7 cells | 6.9 ± 0.3 µmol/L | 6.1 ± 0.1 µmol/L | 7.4 ± 0.2 µmol/L | – | 7.9 ± 2.4 µmol/L | – | could also inhibit LPS-induced NO release | 216 ± 4.2% | 196.2 ± 1.8% | 204 ± 3.5% | viability at 24 h, 40 μmol/L ([6]; no LPS): 180 ± 9.1%; viability at 24 h, 60 μmol/L ([6]; LPS 100 ng/mL): 226 ± 7.8%; viability at 24 h, 60 μmol/L ([6]; no LPS): 179.4 ± 0.8%; inhibition at 20 µM (RAW264.7 cells [5]; Mus musculus, RAW264.7, 20 μmol/L, LPS 100 ng/mL, vs model group, read-out: Inhibition rate (%) of NO production): 23.7%; inhibition at 40 µM (RAW264.7 cells [5]; Mus musculus, RAW264.7, 40 μmol/L, LPS 100 ng/mL, vs model group, read-out: Inhibition rate (%) of NO production): 18.5%; inhibition at 60 µM (RAW264.7 cells [5]; Mus musculus, RAW264.7, 60 μmol/L, LPS 100 ng/mL, vs model group, read-out: Inhibition rate (%) of NO production): 12.4%
